# What was measured:
# Assay type in all cases: cell-based, murine
# LDHA, PDK1, PKM2 = assay: LDHA, PDK1 and PKM2 mRNA expression in WT-1 cells; settings: WT-1, 24 hours; vs vehicle
# Procedure: To test the role of specific prostaglandins (PGs) in activating UCP1 expression, WT-1 brown adipocytes were pretreated with PGE2, PGI2 and FGF6 for 24 hours. mRNA expression levels of UCP1, PTGS2, LDHA, PDK1 and PKM2 were then measured.
# WT-1 brown preadipocytes [1] = assay: Seahorse Bioanalyzer cellular respiration in WT-1 brown preadipocytes; settings: growth media, two days
# Description: The Seahorse XF24 (Seahorse Bioscience, http://www.seahorsebio.com/) was utilized for respirometry to measure oxygen consumption rates (OCR; indicating oxidative phosphorylation) and extracellular acidification rates (ECAR; indicating extracellular pH) in mature brown adipocytes. The cell plates and assay cartridges for the Seahorse XF24 have four ports allowing for drug delivery to individual wells during measurement of the metabolic parameters. For a typical bioenergetic profile, cells are first treated with oligomycin to block ATP synthase, FCCP as an uncoupler and Rotenone to block Complex 1 of the ETC (all from Sigma). Example 2 provides additional details regarding the general method. […]
# A profile of cellular respiration was developed by utilizing well-characterized mitochondrial toxins, as described in FIG. 5B. First, basal respiration was measured, followed by injection of oligomycin (an inhibitor of ATP synthase which allows measurement of ATP turnover). Then, the uncoupler FCCP (carbonilcyanide p-triflouromethoxyphenylhydrazone) was injected to measure respiratory capacity, followed by the complex 1 inhibitor rotenone (which prevents electron transfer activity and leaves only non-mitochondrial activity to be measured). […]
# (§1) The role of PGs in regulating mitochondrial function and cellular glucose uptake was also assessed. […]
# WT-1 brown preadipocytes [2] = assay: 2-deoxy-[3H]glucose uptake in WT-1 brown preadipocytes; settings: growth media, two days
# Procedure: The following glucose uptake assay was used to determine whether FGF6 could impact cellular glucose uptake. Specifically, glucose uptake was monitored in WT-1 brown preadipocytes and 3T3-F442A white preadipocytes in the presence or absence of FGF6. After serum starvation in DMEM/H medium containing 1% of BSA for 2-3 h, cells were washed with HEPES buffer and then incubated with or without 100 nM insulin for 30 min in DMEM/H medium containing 1% of BSA. Glucose transport was determined by the addition of 2-deoxy-[3H]glucose (0.1 mM, 0.5 μCi/mL; PerkinElmer Life and Analytical Science, Waltham, Mass.). After 5 minutes of incubation, the reaction was stopped by ice-cold PBS and cells were washed twice with ice-cold PBS. Cells were then lysed in 0.1% SDS, and glucose uptake was assessed in 4 mL of scintillant using Beckman LS6500 scintillation counter (Beckman Coulter, Indianapolis Ind.). Nonspecific 2-deoxy-[3H]glucose uptake was measured in the presence of cytochalasin B (20 μM) and was subtracted from the total uptake to get specific glucose uptake. Results were expressed as the mean±s.e.m. of the indicated number of experiments. The protein content was determined by the Bradford method.
# as §1
Structure (SMILES),"LDHA mRNA expression (LDHA, PDK1, PKM2)","PDK1 mRNA expression (LDHA, PDK1, PKM2)","PKM2 mRNA expression (LDHA, PDK1, PKM2)",oxygen consumption in WT-1 brown preadipocytes (WT-1 brown preadipocytes [1]),glucose uptake in WT-1 brown preadipocytes (WT-1 brown preadipocytes [2])
"CCCCC[C@H](O)/C=C/[C@H]1[C@H](O)CC(=O)[C@@H]1C/C=C\CCCC(=O)O [PGE2, reference compound]",increase,increase,increase,enhanced,enhanced
"CCCCC[C@H](O)/C=C/[C@@H]1[C@H]2C/C(=C/CCCC(=O)O)O[C@H]2C[C@H]1O [PGI2, reference compound]",increase,increase,increase,enhanced,enhanced
